{"source": "patent US20210369691A1", "about": "“METHODS AND COMPOSITIONS FOR IMPROVING BONE MARROW HEMATOPOIETIC FUNCTIONS” (Sun Yat-Sen University, priority 2018, published 2021)", "key": {"[1]": {"experiment": "Survival after repeated high-dose 5FU chemotherapy", "type": "in vivo, mice", "settings": "5FU 150 mg/kg every 7 days, two times; ABC294640 10 mg/kg every other day; vs control group; FIG. 9", "protocol": "Preparation of SphK2 inhibitors was as described in Example 4. […] 8-week-old C57 mice purchased from Laboratory Animal Center, Sun Yat-sen University were selected and divided evenly into two groups. The mice were intraperitoneally injected with 5FU at a dose of 150 mg/kg, once every 7 days for two times in total. The inhibitor ABC294640 was injected starting from the day after 5FU injection, then injected once every other day, at a dose of 10 mg/kg, until the end of the experiment. Comparison of overall survival rates was performed using the Mantel_Cox log-rank test and differences were considered statistically significant when P<0.05."}, "hematopoietic stem cells": {"tested_on": "hematopoietic stem cells", "experiment": "Hematopoietic stem cell number and cell cycle in uninjured mice after ABC294640 treatment", "type": "in vivo", "settings": "vs solvent control", "from_the_text": "FIG. 27. illustrates the absolute number of HSPCs (LT-HSC, ST-HSC, MPP and CD150HSC) in the bone marrow (a) and cell cycle analysis of CD150 HSCs (b) in bone marrow from C57BL/6J mice after ABC294640 or solvent control treatment (n=5 mice). Data represent mean±s.d. Two-tailed Student's t-tests were used to assess statistical significance. *P<0.05, **P<0.01, ***P<0.001. To analyze whether Sphk2 inhibitor is effective in expanding hematopoietic stem cell number and enhance their function. Twenty 8-week-old C57 mice (purchased from Laboratory Animal Center, Sun Yat-sen University) were selected for the experiment. The mice were divided evenly into an inhibitor treatment group and a control group. The mice were injected intraperitoneally with ABC294640 (inhibitor treatment group) or solvent control (1:1 physiological saline: PEG400) solution (control group) every other day. 14 days after the first injection, bone marrow cells were harvested from both groups, and were analyzed for the number of hematopoietic stem cells, with methods and analysis as described in Example 1. To evaluate the hematopoietic function of the hematopoietic stem cells, 2×10^5 bone marrow cells from Sphk2 inhibitor or solvent control treated mice were transplanted into irradiated recipients (as described in Example 13). Peripheral blood was collected from the tail vein every 4 weeks after transplantation. The hematopoietic repopulation function was examined from donor-derived blood cells. The Sphk2 inhibitor was prepared as described in Example 4. Briefly, ABC294640 was purchased from Selleck and dissolved in dimethyl sulfoxide (DMSO), which was finally diluted with a mixture solution of polyethylene glycol 400 (PEG400) and physiological saline (1:1) to be administered at a dose of 10 mg/kg. T-test analysis was carried out using Graphpad6.0, and differences were considered statistically significant when *P<0.05, **P<0.01 and ***P<0.001."}}}
{"smiles": "O=C(NCc1ccncc1)C12CC3CC(C1)CC(c1ccc(Cl)cc1)(C3)C2", "note": "[ABC294640, 3-(4-chloro-phenyl)-adamantane-1-carboxylic acid (pyridin-4-ylmethyl)-amide]", "values": [{"measurement": "survival period", "setting": "[1]", "value": "significantly (***P<0.001) prolonged"}, {"measurement": "increase of number of hematopoietic stem cells", "setting": "hematopoietic stem cells; ABC294640 10 mg/kg i.p. every other day, 14 days after first injection, FIG. 14 panel b", "value": 1.7, "unit": "fold"}, {"measurement": "increase of CD150 HSCs (expanded HSC pool)", "setting": "hematopoietic stem cells; FIG. 27", "value": 1.7, "unit": "fold"}, {"measurement": "increase of LT-HSCs (expanded HSC pool)", "setting": "hematopoietic stem cells; FIG. 27", "value": 2.1, "unit": "fold"}, {"measurement": "quiescence of HSCs (cell cycle analysis of CD150 HSCs)", "setting": "hematopoietic stem cells; FIG. 27", "value": "increased quiescence"}]}
